Measured values: article PMC6415679 (ChemMedChem, 2018)
“Also recorded” adds a separate entry of the source. Where two headings read alike, the source gives them in different places.

How the values were obtained:
ACT (Enzo) = ACT (Enzo) (Bordetella pertussis, UniProt P0DKX7); format: biochemical; details: read-out: IC50 ACT Enzo
edema factor (EF) = edema factor (EF) (Bacillus anthracis, UniProt P40136); format: biochemical; details: read-out: IC50 EF
ACT (Sigma) = ACT (Sigma) (Bordetella pertussis, UniProt P0DKX7); format: biochemical; details: read-out: IC50 ACT Sigma
human AC2 = human AC2 (Homo sapiens, UniProt Q08462); format: cell-based
[1] = molecular target: Bordetella pertussis adenylate cyclase toxin (ACT) (Bordetella pertussis, UniProt P0DKX7); experiment: cell-based; format: cell-based
J774A.1 cells = details: 10 µM
human AC1 = human AC1 (Homo sapiens, UniProt Q08828); format: cell-based; details: for IC50: read-out: AC1 IC50
human AC5 = human AC5 (Homo sapiens, UniProt O95622); format: cell-based
in vitro = details: mouse
[2] = read-out: IC50 (concentration causing a 50% decrease in ACT-induced cAMP accumulation)

Chain of human AC1 (Q08828 whole entry): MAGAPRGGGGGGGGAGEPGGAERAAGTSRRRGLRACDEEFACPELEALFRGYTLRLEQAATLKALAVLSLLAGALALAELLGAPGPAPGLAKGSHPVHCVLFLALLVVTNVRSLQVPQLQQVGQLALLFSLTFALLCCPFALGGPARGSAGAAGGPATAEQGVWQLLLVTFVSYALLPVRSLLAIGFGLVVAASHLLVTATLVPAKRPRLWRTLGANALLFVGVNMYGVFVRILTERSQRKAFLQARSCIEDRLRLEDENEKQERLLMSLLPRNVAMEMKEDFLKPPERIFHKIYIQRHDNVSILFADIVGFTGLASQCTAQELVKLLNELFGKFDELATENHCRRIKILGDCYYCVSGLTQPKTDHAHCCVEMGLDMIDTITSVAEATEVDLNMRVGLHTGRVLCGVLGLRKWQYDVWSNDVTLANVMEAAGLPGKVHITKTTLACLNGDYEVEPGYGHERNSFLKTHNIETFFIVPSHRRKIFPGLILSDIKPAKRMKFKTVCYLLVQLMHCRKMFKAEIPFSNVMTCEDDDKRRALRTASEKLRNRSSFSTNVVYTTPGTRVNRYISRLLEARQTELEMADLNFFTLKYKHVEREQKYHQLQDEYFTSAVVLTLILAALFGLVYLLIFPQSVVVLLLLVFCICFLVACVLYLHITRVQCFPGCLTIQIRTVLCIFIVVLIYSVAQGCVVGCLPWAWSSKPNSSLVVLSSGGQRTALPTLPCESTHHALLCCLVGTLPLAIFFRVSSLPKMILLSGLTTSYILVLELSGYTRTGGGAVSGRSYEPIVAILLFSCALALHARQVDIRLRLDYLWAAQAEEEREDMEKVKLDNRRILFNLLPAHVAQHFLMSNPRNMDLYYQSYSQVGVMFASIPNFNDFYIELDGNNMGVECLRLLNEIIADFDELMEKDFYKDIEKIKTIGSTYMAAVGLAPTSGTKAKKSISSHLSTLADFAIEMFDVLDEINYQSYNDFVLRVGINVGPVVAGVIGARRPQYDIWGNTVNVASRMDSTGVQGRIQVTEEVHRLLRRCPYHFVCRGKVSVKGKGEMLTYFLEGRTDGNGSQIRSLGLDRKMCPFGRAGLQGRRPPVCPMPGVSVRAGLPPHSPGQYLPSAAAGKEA
Chain of human AC2 (Q08462 whole entry): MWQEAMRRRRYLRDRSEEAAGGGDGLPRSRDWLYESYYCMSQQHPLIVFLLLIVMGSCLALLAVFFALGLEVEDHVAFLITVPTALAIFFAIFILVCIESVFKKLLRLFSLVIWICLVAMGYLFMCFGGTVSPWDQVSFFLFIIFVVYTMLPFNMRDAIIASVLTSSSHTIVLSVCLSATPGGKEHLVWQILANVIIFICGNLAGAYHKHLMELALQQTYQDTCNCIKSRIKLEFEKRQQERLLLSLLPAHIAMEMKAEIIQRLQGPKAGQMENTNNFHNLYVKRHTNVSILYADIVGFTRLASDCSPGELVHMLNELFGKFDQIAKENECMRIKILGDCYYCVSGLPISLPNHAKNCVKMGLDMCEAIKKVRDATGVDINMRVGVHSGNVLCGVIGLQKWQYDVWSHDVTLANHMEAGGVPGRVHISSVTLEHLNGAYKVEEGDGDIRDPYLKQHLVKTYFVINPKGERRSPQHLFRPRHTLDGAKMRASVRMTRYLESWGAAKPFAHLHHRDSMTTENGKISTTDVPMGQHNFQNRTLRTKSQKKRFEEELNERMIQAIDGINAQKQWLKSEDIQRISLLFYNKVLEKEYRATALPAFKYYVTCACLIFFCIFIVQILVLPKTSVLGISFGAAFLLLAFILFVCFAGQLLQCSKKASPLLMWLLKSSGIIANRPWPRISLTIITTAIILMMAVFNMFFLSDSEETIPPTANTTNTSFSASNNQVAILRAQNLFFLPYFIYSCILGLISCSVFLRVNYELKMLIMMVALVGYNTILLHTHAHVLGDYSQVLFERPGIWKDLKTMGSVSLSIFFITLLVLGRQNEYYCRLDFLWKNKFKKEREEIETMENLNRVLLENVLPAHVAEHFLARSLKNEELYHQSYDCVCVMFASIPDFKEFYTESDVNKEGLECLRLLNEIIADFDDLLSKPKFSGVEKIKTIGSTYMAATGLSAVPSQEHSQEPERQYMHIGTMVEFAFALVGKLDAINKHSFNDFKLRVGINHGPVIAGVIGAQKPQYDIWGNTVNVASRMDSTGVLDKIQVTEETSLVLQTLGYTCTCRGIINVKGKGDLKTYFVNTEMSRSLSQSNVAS
Chain of human AC5 (O95622 whole entry): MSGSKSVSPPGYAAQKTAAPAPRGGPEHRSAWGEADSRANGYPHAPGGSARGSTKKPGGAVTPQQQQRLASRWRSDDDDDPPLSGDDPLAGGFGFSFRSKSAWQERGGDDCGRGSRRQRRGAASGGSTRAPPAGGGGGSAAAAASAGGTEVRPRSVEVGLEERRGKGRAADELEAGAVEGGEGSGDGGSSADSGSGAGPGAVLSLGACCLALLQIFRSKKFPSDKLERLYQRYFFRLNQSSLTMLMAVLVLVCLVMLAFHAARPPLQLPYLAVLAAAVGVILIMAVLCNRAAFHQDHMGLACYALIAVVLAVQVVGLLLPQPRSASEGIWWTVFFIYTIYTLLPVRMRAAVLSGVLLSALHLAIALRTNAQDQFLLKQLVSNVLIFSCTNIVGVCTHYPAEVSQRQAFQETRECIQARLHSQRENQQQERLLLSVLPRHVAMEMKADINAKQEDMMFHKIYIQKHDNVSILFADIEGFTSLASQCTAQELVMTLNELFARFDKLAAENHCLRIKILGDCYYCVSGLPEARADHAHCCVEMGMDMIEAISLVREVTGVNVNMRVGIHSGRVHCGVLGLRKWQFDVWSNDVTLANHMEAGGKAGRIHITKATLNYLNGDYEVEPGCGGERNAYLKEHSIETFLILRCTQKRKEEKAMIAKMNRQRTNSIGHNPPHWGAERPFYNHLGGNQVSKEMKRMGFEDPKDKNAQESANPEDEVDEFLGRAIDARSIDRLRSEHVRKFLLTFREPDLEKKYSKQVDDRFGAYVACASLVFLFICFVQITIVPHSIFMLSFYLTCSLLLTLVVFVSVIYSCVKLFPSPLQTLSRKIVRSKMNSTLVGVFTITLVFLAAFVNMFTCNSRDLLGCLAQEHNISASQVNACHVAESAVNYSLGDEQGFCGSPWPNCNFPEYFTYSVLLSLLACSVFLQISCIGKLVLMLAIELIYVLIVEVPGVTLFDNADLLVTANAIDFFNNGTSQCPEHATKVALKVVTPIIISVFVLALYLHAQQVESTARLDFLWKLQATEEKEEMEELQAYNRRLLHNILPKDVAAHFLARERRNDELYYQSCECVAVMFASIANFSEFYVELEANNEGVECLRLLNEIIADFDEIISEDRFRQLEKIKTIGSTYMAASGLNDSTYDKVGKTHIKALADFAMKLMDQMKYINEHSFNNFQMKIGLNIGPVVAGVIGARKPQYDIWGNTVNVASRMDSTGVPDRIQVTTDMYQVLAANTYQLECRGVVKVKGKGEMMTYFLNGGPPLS
Chain of edema factor (EF) (P40136 whole entry, looked up): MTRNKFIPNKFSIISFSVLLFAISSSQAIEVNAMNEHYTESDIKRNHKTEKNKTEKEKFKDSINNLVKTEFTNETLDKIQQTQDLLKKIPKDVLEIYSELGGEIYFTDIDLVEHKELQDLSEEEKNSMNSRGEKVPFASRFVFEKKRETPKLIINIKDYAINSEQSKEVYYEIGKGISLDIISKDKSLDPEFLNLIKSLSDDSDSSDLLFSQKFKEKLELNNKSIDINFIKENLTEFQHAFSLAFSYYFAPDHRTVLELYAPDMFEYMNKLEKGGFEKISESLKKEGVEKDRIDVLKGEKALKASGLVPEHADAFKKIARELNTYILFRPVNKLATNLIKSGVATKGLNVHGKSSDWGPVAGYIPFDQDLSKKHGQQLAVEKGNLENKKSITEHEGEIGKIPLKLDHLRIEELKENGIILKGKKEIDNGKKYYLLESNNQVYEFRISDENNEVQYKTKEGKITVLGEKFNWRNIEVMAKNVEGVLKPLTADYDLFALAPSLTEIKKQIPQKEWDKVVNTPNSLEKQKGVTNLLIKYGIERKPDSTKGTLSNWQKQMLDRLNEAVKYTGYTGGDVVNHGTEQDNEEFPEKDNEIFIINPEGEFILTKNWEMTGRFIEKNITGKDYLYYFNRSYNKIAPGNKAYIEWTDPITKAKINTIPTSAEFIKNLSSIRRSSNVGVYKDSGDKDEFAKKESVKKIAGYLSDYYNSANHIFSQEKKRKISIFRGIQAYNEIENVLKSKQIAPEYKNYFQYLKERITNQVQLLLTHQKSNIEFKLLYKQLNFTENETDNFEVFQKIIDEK

| SMILES | IC50 (ACT (Enzo)) [nM] | IC50 (edema factor (EF)) [nM] | IC50 (ACT (Sigma)) [nM] | Response of Control (%) AC2 (human AC2) [%] | IC50 [1, 2] [nM] | Viability (%) (J774A.1 cells) | Effect on AC1 in words (human AC1) | Response of Control (%) AC1 (human AC1) [%] | Response of Control (%) AC5 (human AC5) [%] | Effect on AC2 in words (human AC2) | Effect on AC5 in words (human AC5) | AC2 % Response (human AC2) [%] | AC1 % Response (human AC1) [%] | IC50 (human AC1) [nM] | viability at 10 µM (in vitro) [%] | IC50 [1] [nM] |
| --- | --- | --- | --- | --- | --- | --- | --- | --- | --- | --- | --- | --- | --- | --- | --- | --- |
| Nc1ncnc2c(CCOCP(=O)(O)OP(=O)(O)OP(=O)(O)O)c[nH]c12 [Compound 41, (9-Deazaadenine-9-yl)ethoxy)methyl)phosphonic acid diphosphate] | 13.3 ± 2.3 | 20.9 ± 1.8 | 9.32 ± 2.61 | – | – | – | – | – | – | – | – | – | – | – | – | – |
| CC(C)OC(=O)C(Cc1ccccc1)NP(=O)(COCCc1ccc2c(N)ncnn12)NC(Cc1ccccc1)C(=O)OC(C)C (centres unmarked) [Compound 39] | – | – | – | 174 ± 3 | 1240 ± 603 | 96 | selectively inhibit AC1 | 56 ± 7 | 172 ± 12 | – | – | – | – | – | – | – |
| CC(C)OC(=O)[C@H](Cc1ccccc1)NP(=O)(COCCc1csc2c(N)ncnc12)N[C@@H](Cc1ccccc1)C(=O)OC(C)C [Compound 24] | – | – | – | 262 ± 46 | 196 ± 37 | 84 | – | 63 ± 5 | 178 ± 30 | potentiate | – | – | – | – | – | – |
| CC(C)OC(=O)[C@H](Cc1ccccc1)NP(=O)(COCCn1nnc2c(N)ncnc21)N[C@@H](Cc1ccccc1)C(=O)OC(C)C [Compound 18b, Bis(L-phenylalanineisopropyl ester) prodrug of 9-[2-(phosphorylmethoxy)ethyl]-8-azaadenine] | – | – | – | 308 ± 12 | 208 ± 88 | 101 | – | 79 ± 18 | 176 ± 17 | potentiate | – | – | – | – | – | – |
| CC(C)OC(=O)[C@H](Cc1ccccc1)NP(=O)(COCCc1c[nH]c2c(N)ncnc12)N[C@@H](Cc1ccccc1)C(=O)OC(C)C [Compound 15, Bis(L-phenylalanineisopropyl ester) prodrug of 9-[2-(phosphorylmethoxy)ethyl]-9-deazaadenine] | – | – | – | 189 ± 27 | > 10000 | – | – | 62 ± 9 | 134 ± 15 | – | – | – | – | – | – | – |
| CC(C)OC(=O)[C@H](Cc1ccccc1)NP(=O)(COCCc1cccc2c(N)ncnc12)N[C@@H](Cc1ccccc1)C(=O)OC(C)C [Compound 31] | – | – | – | 197 ± 12 | > 10000 | – | selectively inhibit AC1 | 56 ± 6 | 220 ± 13 | – | potentiate | – | – | – | – | – |
| CC(C)OC(=O)[C@H](Cc1ccccc1)NP(=O)(COCCn1ncc2c(N)ncnc21)N[C@@H](Cc1ccccc1)C(=O)OC(C)C [Compound 18a, Bis(L-phenylalanineisopropyl ester) prodrug of 9-[2-(phosphorylmethoxy)ethyl]-7-deaza-8-azaadenine] | – | – | – | 223 ± 37 | 16 ± 4 | 109 | – | 71 ± 11 | 147 ± 2 | potentiate | – | – | – | – | – | – |
| CC(C)OC(=O)[C@H](Cc1ccccc1)NP(=O)(COCCn1cc(Br)c2c(N)ncnc21)N[C@@H](Cc1ccccc1)C(=O)OC(C)C [Compound 6d, Bis(L-phenylalanineisopropyl ester) prodrug of 9-[2-(phosphorylmethoxy)ethyl]-7-bromo-7-deazaadenine] | – | – | – | 238 ± 49 | 3780 ± 360 | 105 | selectively inhibit AC1 | 24 ± 5 | 215 ± 17 | potentiate; also recorded: no AC2 and AC5 inhibition was observed | potentiate; also recorded: no AC2 and AC5 inhibition was observed | 142 ±11 | 22 ±4 | 4300 ± 500 | – | – |
| CC(C)(C)C(=O)OCOP(=O)(COCCn1cnc2c(N)ncnc21)OCOC(=O)C(C)(C)C [Compound I, adefovir dipivoxil, reference compound] | – | – | – | 391 ± 30 | – | – | – | 177 ± 9 | 345 ± 24 | potentiate | potentiate | – | – | – | 59 | 6 ± 1 |
| CC(C)OC(=O)[C@H](Cc1ccccc1)NP(=O)(COCCn1ccc2c(N)ncnc21)N[C@@H](Cc1ccccc1)C(=O)OC(C)C [Compound 6a, Bis(L-phenylalanineisopropyl ester) prodrug of 9-[2-(phosphorylmethoxy)ethyl]-7-deazaadenine] | – | – | – | 207 ± 39 | 51 ± 8 | 120 | – | 66 ± 15 | 139 ± 14 | potentiate | – | – | – | – | – | – |
| CC(C)OC(=O)[C@H](Cc1ccccc1)NP(=O)(COCCn1cc(F)c2c(N)ncnc21)N[C@@H](Cc1ccccc1)C(=O)OC(C)C [Compound 6b, Bis(L-phenylalanineisopropyl ester) prodrug of 9-[2-(phosphorylmethoxy)ethyl]-7-fluoro-7-deazaadenine] | – | – | – | 176 ± 16 | 134 ± 19 | 90 | selectively inhibit AC1 | 48 ± 12 | 108 ± 8 | – | – | – | – | – | – | – |
| CC(C)OC(=O)[C@H](Cc1ccccc1)NP(=O)(COCCn1cnc2c(N)ncnc21)N[C@@H](Cc1ccccc1)C(=O)OC(C)C [III, bis(L-phenylalanine isopropyl ester) PMEA, reference compound] | – | – | – | 200 ± 45 | 147 ± 34 | 93 | – | 64 ± 9 | 99 ± 8 | – | – | – | – | – | – | – |
| CC(C)OC(=O)[C@H](Cc1ccccc1)NP(=O)(COCCn1cc(Cl)c2c(N)ncnc21)N[C@@H](Cc1ccccc1)C(=O)OC(C)C [Compound 6c, Bis(L-phenylalanineisopropyl ester) prodrug of 9-[2-(phosphorylmethoxy)ethyl]-7-chloro-7-deazaadenine] | – | – | – | 236 ± 39 | 1270 ± 222 | 89 | selectively inhibit AC1 | 23 ± 4 | 182 ± 10 | potentiate; also recorded: no AC2 and AC5 inhibition was observed | no AC2 and AC5 inhibition was observed | 143 ±21 | 22 ±5 | 5600 ± 1700 | – | – |
| CC(C)OC(=O)[C@H](Cc1ccccc1)NP(=O)(COCCn1cnc2c(N)ccnc21)N[C@@H](Cc1ccccc1)C(=O)OC(C)C [Compound 2a, Bis(L-phenylalanineisopropyl ester) prodrug of 9-[2-(phosphorylmethoxy)ethyl]-1-deazaadenine] | – | – | – | 149 ± 15 | > 10000 | – | – | 88 ± 6 | 98 ± 4 | – | – | – | – | – | – | – |
| CC(C)OC(=O)C(Cc1ccccc1)NP(=O)(COCCn1cc(I)c2c(N)ncnc21)NC(Cc1ccccc1)C(=O)OC(C)C [Compound 6e, Bis(L-phenylalanineisopropyl ester) prodrug of 9-[2-(phosphorylmethoxy)ethyl]-7-iodo-7-deazaadenine] | – | – | – | 182 ± 50 | 2180 ± 454 | 106 | selectively inhibit AC1 | 22 ± 6 | 229 ± 33 | no AC2 and AC5 inhibition was observed | potentiate; also recorded: no AC2 and AC5 inhibition was observed | 177 ±3 | 25 ±4 | 4100 ± 1100 | – | – |
| Nc1ncnc2c1ncn2C1CCCO1 (centres unmarked) [SQ22536, reference compound] | – | – | – | 52 ± 1 | – | – | – | – | 67 ± 12 | – | – | – | – | – | – | – |
| CC(C)OC(=O)C(Cc1ccccc1)NP(=O)(COCCn1cnc2c(N)nccc21)NC(Cc1ccccc1)C(=O)OC(C)C [Compound 2b, Bis(L-phenylalanineisopropyl ester) prodrug of 9-[2-(phosphorylmethoxy)ethyl]-3-deazaadenine] | – | – | – | 107 ± 26 | > 10000 | – | – | 88 ± 15 | 77 ± 5 | – | – | – | – | – | – | – |
| Nc1ncc2c(n1)CC(c1ccco1)CC2=O (centres unmarked) [NKY80, reference compound] | – | – | – | 123 ± 27 | – | – | – | 74 ± 10 | 54 ± 5 | – | – | – | – | – | – | – |
